# Data: patent publication US9481610B2, “Use of a fertilizer containing L-amino acid for improving root growth and growth of mycorrhiza” (SweTree Technologies AB, priority 2007, dated 2016)
# Assays:
# [1] = test system: Scots pine roots; test: Evaluation of mycorrhiza of Scots pine roots (chitin content); type: in vivo; settings: fertilization with arginine
# [2] = test system: Arabidposis thaliana; test: Growth and allocation of biomass as affected by nitrogen form in Arabidopsis; type: in vivo; settings: sterile culture 21 days, total nitrogen 6 mM
Compound,chitin content of roots versus reference (in words) [1],Root fraction [2],Total biomass [2]
N=C(N)NCCC[C@H](N)C(=O)O [L-Arginine],substantially higher content of chitin in roots,,
O=[N+]([O-])O [nitrate],,0.12,4.63
